Assays:
iCasp9-transduced MSCs = assay: Apoptosis studies in vitro in iCasp9-ΔCD19 transduced MSCs; assay type: cell-based, human
Method: Undifferentiated MSCs. The chemical inducer of dimerization (CID) (AP20187; ARIAD Pharmaceuticals, Cambridge, Mass.) was added at 50 nM to iCasp9-transduced MSCs cultures in complete medium. Apoptosis was evaluated 24 hours later by FACS analysis, after cell harvest and staining with annexin V-PE and 7-AAD in annexin V binding buffer (BD Biosciences, San Diego, Calif.). Control iCasp9-transduced MSCs were maintained in culture without exposure to CID.
Differentiated MSCs. Transduced MSCs were differentiated as presented above. At the end of the differentiation period, CID was added to the differentiation media at 50 nM. Cells were stained appropriately for the tissue being studied, as presented above, and a contrast stain (methylene azure or methylene blue) was used to evaluate the nuclear and cytoplasmic morphology. In parallel, tissues were processed for terminal deoxynucleotidyl-transferase dUTP nick end labeling (TUNEL) assay as per manufacturer instructions (In Situ Cell Death Detection Kit, Roche Diagnostics, Mannheim, Germany). For each time point, four random fields were photographed at a final magnification of 40× and the images were analyzed with ImageJ software version 1.430 (NIH, Bethesda, Md.). Cell density was calculated as the number of nuclei (DAPI positivity) per unit of surface area (in mm^2). The percentage of apoptotic cells was determined as the ratio of the number of nuclei with positive TUNEL signal (FITC positivity) to the total number of nuclei. Controls were maintained in culture without CID.

293T cells = assay: SeAP reporter assay: iC9 without FRB-Caspase-9 (controls); assay type: cell-based; details: iC9 with control vector or FRB without caspase fusion
From the text: (FIGS. 39 and 40). iC9 (FKBPv12-Caspase-9) was cotransfected with a control vector expressing only an epitope tag (FIG. 39) or a vector containing FRB without caspase fusion, but instead with a short, irrelevant tag (FIG. 40).
FIG. 39—FRB-Caspase-9 is required for a rapamycin-induced cell death switch. 293T cells were transfected with SRα-SeAP (pBP0046), pS-NLS-E and pSH1-FKBPv12-Caspase9 (pBP0044).
FIG. 40—Caspase-9 fusion with FRB is required for a rapamycin-induced cell death switch. 293T cells were transfected with SRα-SeAP (pBP0046), pSH1-FRBL-VP16 (pBP0731) (4) and pSH1-FKBPv12-Caspase9 (pBP0044). […] Loss of reporter activity is a proxy for the loss of cell viability. Reporter activity is expressed as a percentage of the average of 8 wells containing no drug. Drug-containing wells were assayed in triplicate wells.

[1] = system: transduced T cells (human PBMCs); assay: IL-6 ELISA as indicator of MC activity in transduced T cells; assay type: cell-based
T cells expressing iC9 = assay: T cell killing assay with caspase 3/7 green reagent monitored by IncuCyte, iC9; assay type: cell-based, human; details: increasing doses, PBMCs from 3 donors, FIG. 108B
From the text: To determine the functionality of these switches in activated T cells, retroviral supernatants were produced and transduced into PBMCs activated from 3 separate donors.

[2] = system: iC9 T cells (pBP0220, GFP-Fluc); assay: In vivo apoptotic activation in NSG mice, iC9 T cells (IVIS imaging, spleen FACS); design: species or system mouse
Method: PBMCs from donor 676 were activated and co-transduced with one of the off-switches and GFP-Fluc retroviruses. Eleven days after transduction, cells were analyzed for transduction efficiency with GFP and anti-CD3/anti-CD19 antibodies (FIG. 109A). […] The CD19^+ MFI for the different T cell populations were: iC9=15.07, iRC9=14.38, and iRmC9=13.39. The cells were collected, counted, washed, and resuspended at 1×10^6 cells in 100 μl PBS for each tail vein mouse injection (Table 10) (time=−18 hr). […] IVIS imaging was performed at −14, 0, 5, 24 and 29 hours. Mice were sacrificed and spleens were collected for FACS analysis with hCD3, hCD19 and mCD45 antibodies. […] The higher percentage of remaining iRmC9 T cells observed may be due to an artifact of normalizing the no drug group.
PBMCs from donor 676 were activated and co-transduced with retroviruses encoding the pBP0220, 1310, 1327 vectors and the GFP-Fluc plasmid. (FIG. 109A) Eleven days post transduction, the cells were analyzed for CD19 and GFP transduction efficiency prior to injection into mice. (FIGS. 109B & C) NSG mice were injected i.v. with 107 T cells co-transduced with GFP-Fluc per mouse and suicide drugs were injected i.p. the next day. Bioluminescence of cells was assessed at −14, 0, 5, 24, and 29 hours post-drug administration. […]

CD123+ THP-1 tumor cells = assay: NSG tumor xenograft model, THP-1-EGFPluc, iMC-CD123.ζ-modified T cells with Rim; assay type: in vivo, mouse; details: costimulation by systemic rimiducid administration (1 mg/kg i.p. days 0 and 15)
Method: Animal experiments: In vivo efficacy of iMC-CD123.ζ-modified T cells was assessed using an immune-deficient NSG tumor xenograft model. One million EGFPluc-expressing CD123^+ THP-1 tumor cells were injected i.v. into the animals, followed by a single i.v. injection on day 7 with varying non-transduced or iMC-CD123.ζ-modified T cells. Groups receiving CAR-T cells subsequently received i.p. injections of Rim (1 mg/kg) or vehicle only on days 0 and 15 post-T cell injection. Animals were evaluated for THP-1-EGFPluc tumor burden and weight change on a weekly basis using IVIS bioluminescent imaging (BLI) and for T cell persistence by flow cytometry and qPCR at day 30 post-T cell injection.
FIG. 114. (A) PBMCs were activated and transduced with retrovirus including the CD123 iMC-CARζ vector. Twelve days after transduction, CAR expression was determined using anti-Q-bend10 antibody before injection into mice. […] (C) THP1-GFP.Fluc growth was measured using IVIS bioluminescence. (D, E) On day 30, mice were sacrificed and spleens were analyzed for the presence of CAR-T cells by flow cytometry and vector copy number assay.
(B) On day 29, mice were sacrificed and spleens were analyzed for the presence of CAR-T cells by vector copy number assay.

SMILES | apoptosis index of iCasp9-negative cells (iCasp9-transduced MSCs; CID 50 nM) [%] | apoptotic death of iCasp9-positive cells within 24 hrs (iCasp9-transduced MSCs; CID 50 nM) [%] | annexin positive, negative population (iCasp neg/CID) (iCasp9-transduced MSCs; CID 50 nM, 24 hours, FACS) [%] | annexin positive, non-transduced control MSC (Control/CID) (iCasp9-transduced MSCs; CID 50 nM, 24 hours, FACS) [%] | cell density after 24 hours (iCasp9-transduced MSCs; adipocytic differentiated iCasp9-positive cells, 50 nM CID, from 584) [cells/mm^2] | apoptotic cells among magnetically immunoselected iCasp9-CD19-positive cells (iCasp9-transduced MSCs; after exposure to CID) | cell death (loss of SeAP reporter) without FRB-Caspase-9 (293T cells) | MC activity (secreted IL-6) in iMC+CARζ-T cells ([1]; 24 hours) | MC activity (secreted IL-6) in MC-rap-T cells ([1]; pBP1440, 24 hours) | activation of iC9 in T cells (caspase 3/7) (T cells expressing iC9) | iC9 T cells remained in splenocytes compared to no drug- or rapamycin-treated groups ([2]; 5 mg/kg rimiducid i.p., spleen FACS, FIG. 109D) [%] | removal of iC9 T cells / bioluminescence signal (IVIS imaging) ([2]; NSG mice, 5 mg/kg rimiducid or 10 mg/kg rapamycin i.p., FIGS. 109B & C) | eradication of CD123+ leukemic cells by iMC-CARζ T cells (CD123+ THP-1 tumor cells)
CC[C@H](C(=O)N1CCCC[C@H]1C(=O)O[C@H](CCc1ccc(OC)c(OC)c1)c1cccc(OCC(=O)NCC(CNC(=O)COc2cccc([C@@H](CCc3ccc(OC)c(OC)c3)OC(=O)[C@@H]3CCCCN3C(=O)[C@@H](CC)c3cc(OC)c(OC)c(OC)c3)c2)CN(C)C)c1)c1cc(OC)c(OC)c(OC)c1 [AP20187] | 20±7 | 93±1 | 19 | 15 | < 14 | More than 95% |  |  |  |  |  |  | 
CC[C@H](C(=O)N1CCCC[C@H]1C(=O)O[C@H](CCc1ccc(OC)c(OC)c1)c1cccc(OCC(=O)NCCNC(=O)COc2cccc([C@@H](CCc3ccc(OC)c(OC)c3)OC(=O)[C@@H]3CCCCN3C(=O)[C@@H](CC)c3cc(OC)c(OC)c(OC)c3)c2)c1)c1cc(OC)c(OC)c(OC)c1 [rimiducid] |  |  |  |  |  |  | effectively permitted homodimerization and induction of Caspase-9 | stimulated strongly | not stimulated | can activate | ~20 | induced significant removal | efficiently eradicated

Reference: patent US20230065562A1, “DUAL CONTROLS FOR THERAPEUTIC CELL ACTIVATION OR ELIMINATION” (Bellicum Pharmaceuticals, Inc., priority 2015, published 2023)
